Experimental data as given in the NIST ThermoML archive (doi:10.1016/j.jct.2012.10.008).

Key:
[1] = Liquid; for viscosity: Falling or rolling sphere viscometry; for mass density: Vibrating tube method
[2] = refractive index (Na D-line) (dimensionless); details: 298.15 K; 101.33 kPa; Liquid; Standard Abbe refractometry
[3] = xn = mol fraction of the nth substance listed; details: 101 kPa, Liquid, x2 = 0; for viscosity: Falling or rolling sphere viscometry; for mass density: Vibrating tube method

CO [methanol]
[1], 101.33 kPa
Details | mass density [kg/m3] | viscosity [mPa·s]
293.15 K | 791.23 | 0.588
298.15 K | 786.54 | 0.552
303.15 K | 781.81 | 0.516
308.15 K | 777.05 | 0.486
313.15 K | 772.25 | 0.461

Details | refractive index
[2] | 1.3264

CCCCO [butan-1-ol]
[1]
Details | mass density, 293.15 K [kg/m3] | mass density, 298.15 K [kg/m3] | mass density, 303.15 K [kg/m3] | mass density, 308.15 K [kg/m3] | mass density, 313.15 K [kg/m3] | viscosity, 293.15 K [mPa·s] | viscosity, 298.15 K [mPa·s] | viscosity, 303.15 K [mPa·s] | viscosity, 308.15 K [mPa·s] | viscosity, 313.15 K [mPa·s]
101 kPa | – | 805.94 | – | – | – | – | – | – | – | –
101.33 kPa | 809.76 | 805.96 | 802.11 | 798.18 | 794.39 | 2.942 | 2.572 | 2.265 | 2.002 | 1.787

Details | refractive index
[2] | 1.3972

CCCO [propan-1-ol] + CCCC[NH3+].O=[N+]([O-])[O-]
[3]
Details | mass density [kg/m3] | viscosity [mPa·s]
293.15 K | 803.56 | 2.208
298.15 K | 799.58 | 1.975
303.15 K | 795.59 | 1.738
308.15 K | 791.48 | 1.549
313.15 K | 787.36 | 1.382

CCO [ethanol]
[1]
Details | mass density, 293.15 K [kg/m3] | mass density, 298.15 K [kg/m3] | mass density, 303.15 K [kg/m3] | mass density, 308.15 K [kg/m3] | mass density, 313.15 K [kg/m3] | viscosity, 293.15 K [mPa·s] | viscosity, 298.15 K [mPa·s] | viscosity, 303.15 K [mPa·s] | viscosity, 308.15 K [mPa·s] | viscosity, 313.15 K [mPa·s]
101 kPa | – | – | – | – | – | – | – | 1.01 | 0.907 | –
101.33 kPa | 789.5 | 785.39 | 780.69 | 776.35 | 772.11 | 1.218 | 1.134 | 1.015 | 0.91 | 0.836

Details | refractive index
[2] | 1.3594

CCCCO [butan-1-ol] + CCCC[NH3+].O=[N+]([O-])[O-]
[3]
Details | mass density [kg/m3] | viscosity [mPa·s]
293.15 K | 809.76 | 2.942
298.15 K | 805.94 | 2.572
303.15 K | 802.11 | 2.265
308.15 K | 798.18 | 2.002
313.15 K | 794.39 | 1.787

CCO [ethanol] + CCCC[NH3+].O=[N+]([O-])[O-]
[3]
Details | mass density [kg/m3] | viscosity [mPa·s]
293.15 K | 789.5 | 1.218
298.15 K | 785.39 | 1.134
303.15 K | 780.69 | 1.01
308.15 K | 776.35 | 0.907
313.15 K | 772.11 | 0.836

CCCC[NH3+].O=[N+]([O-])[O-] [n-butylammonium nitrate]
[1], 101.33 kPa
Details | mass density [kg/m3] | viscosity [mPa·s]
293.15 K | 1104.68 | 111.35
298.15 K | 1101.52 | 89.95
303.15 K | 1098.38 | 73.04
308.15 K | 1095.26 | 60.25
313.15 K | 1092.17 | 50.12

Details | refractive index
[2] | 1.4458

CO [methanol] + CCCC[NH3+].O=[N+]([O-])[O-]
[3]
Details | mass density [kg/m3] | viscosity [mPa·s]
293.15 K | 791.23 | 0.588
298.15 K | 786.54 | 0.552
303.15 K | 781.81 | 0.516
308.15 K | 777.05 | 0.486
313.15 K | 772.25 | 0.461

CCCO [propan-1-ol]
[1], 101.33 kPa
Details | mass density [kg/m3] | viscosity [mPa·s]
293.15 K | 803.56 | 2.208
298.15 K | 799.58 | 1.975
303.15 K | 795.59 | 1.738
308.15 K | 791.48 | 1.549
313.15 K | 787.36 | 1.382

Details | refractive index
[2] | 1.3833
